The first assay relates to MCH receptors. Kind of assay: MCH receptor activity class (method not given).
Conditions: not given
As for `Cc1cc(N(C)C)nc(N[C@H]2CC[C@@H](C(=O)NCc3ccc(Cl)c(Cl)c3)CC2)n1` [Example 2581, cis-N-(3,4-dichlorobenzyl)-4-{[4-(dimethylamino)-6-methylpyrimidin-2-yl]amino}cyclohexanecarboxamide], the class was determined as 1.

Still in this assay, the particulars now being: MCH receptor activity class 1-3 (percent of control at 10^-7 M or IC50).
In the case of `CN(C)c1cc(N[C@H]2CC[C@@H](NC(=S)NC3CC4CCC3C4)CC2)nc2ccccc12` (relative stereo) [compound 2310], the class is 3 (Class 3 The value of percent of control at 10^−7 M was more than 60% or the value of IC50 was more than 200 nM.).

Staying with this assay, now noted: MCH receptor; class by percent of control at 10^-7 M or IC50.
`CN(C)c1cc(N[C@H]2CC[C@@H](NC(=O)C3CCCC3)CC2)nc2ccccc12` [compound 125]: the class is given as 3 (Class 3 The value of percent of control at 10^−7 M was more than 60% or the value of IC50 was more than 200 nM.).
The same measure, in the same setting: the same measure for `CN(C)c1nc(N[C@H]2CC[C@@H](NC(=O)NCCc3ccccc3)CC2)nc2c1CCCC2` [compound 1906]: 3 (Class 3 The value of percent of control at 10^−7 M was more than 60% or the value of IC50 was more than 200 nM.).
Consider `CC(C)c1ccc(NC(=S)N[C@H]2CC[C@@H](Nc3nc4c(c(N(C)C)n3)CCCC4)CC2)c(Br)c1` [compound 2060], for which the class is 3 (Class 3 The value of percent of control at 10^−7 M was more than 60% or the value of IC50 was more than 200 nM.).

Staying with this assay, now noted: activity class 1-3: percent of control at 10^-7 M or IC50.
In the case of `COc1ccc(Cl)cc1CNC[C@H]1CC[C@@H](Nc2nccc(N(C)C)n2)CC1` [compound 1535], the class was 3 (Class 3 The value of percent of control at 10^−7 M was more than 60% or the value of IC50 was more than 200 nM.).

Still in this assay, the particulars now being: activity class per percent of control at 10^-7 M or IC50.
Consider `CC(CN[C@H]1CC[C@@H](Nc2cc(N(C)C)c3ccccc3n2)CC1)c1ccccc1` (stereo partly drawn) [compound 1110, N4,N4-dimethyl-N2-{cis-4-[(2-phenylpropyl)amino]cyclohexy}quinoline-2,4-diamine], for which the class is listed as 3 (Class 3 The value of percent of control at 10^−7 M was more than 60% or the value of IC50 was more than 200 nM.).

The assay is the same for the next values; noted with them: class 1-3 by percent of control at 10^-7 M or IC50.
Take `Cc1ccc(C(=O)N[C@H]2CC[C@@H](Nc3nc4c(c(N(C)C)n3)CCCC4)CC2)cc1` [compound 487]: the class is reported as 2 (Class 2: The value of percent of control at 10^−7 M was from 40% to 60% or the value of IC′50 was from 50 nM to 200 nM.).
For `Cc1cc(C(=O)N[C@H]2CC[C@@H](Nc3nc4c(c(N(C)C)n3)CCCC4)CC2)n(C)n1` [compound 539], the class is 2 (Class 2: The value of percent of control at 10^−7 M was from 40% to 60% or the value of IC′50 was from 50 nM to 200 nM.).
Same read-out and setting: the same measure for `CN(C)c1nc(N[C@H]2CC[C@@H](CNC(=O)c3ccc(Br)cc3)CC2)nc2c1CCCC2` [compound 584]: 3 (Class 3 The value of percent of control at 10^−7 M was more than 60% or the value of IC50 was more than 200 nM.).
Regarding `Cc1onc(-c2ccccc2Cl)c1C(=O)N[C@H]1CC[C@@H](Nc2nc3c(c(N(C)C)n2)CCCC3)CC1` [compound 534], the class is 2 (Class 2: The value of percent of control at 10^−7 M was from 40% to 60% or the value of IC′50 was from 50 nM to 200 nM.).

The same assay, now with this note: class by percent of control at 10^-7 M or IC50.
On to `CN(C)c1ccnc(N[C@H]2CC[C@@H](CNCc3ccc4c(c3)OCCO4)CC2)n1` [compound 1263], for which the class is recorded as 3 (Class 3 The value of percent of control at 10^−7 M was more than 60% or the value of IC50 was more than 200 nM.).
`CN(C)c1nc(N[C@H]2CC[C@@H](CNC(=O)/C=C/c3ccc([N+](=O)[O-])cc3)CC2)nc2c1CCCC2` [compound 641]: the class is 2 (Class 2: The value of percent of control at 10^−7 M was from 40% to 60% or the value of IC′50 was from 50 nM to 200 nM.).
In the case of `COc1ccc(C(=O)N[C@H]2CC[C@@H](Nc3nccc(N(C)C)n3)CC2)cc1OCc1ccccc1` [compound 889, 3-(benzyloxy)-N-(cis-4-{[4-(dimethylamino)pyrimidin-2-yl]amino}cyclohexyl)-4-methoxybenzamide], the class is recorded as 1 (Class 1: The value of percent of control at 10^−7 M was less than 40% or the value of IC50 was less than 50 nM.).
For `CC(NC(=O)NC1CCC(Nc2nccc(N(C)C)n2)CC1)c1ccccc1` (centres unmarked) [compound 2227], the class is given as 3 (Class 3 The value of percent of control at 10^−7 M was more than 60% or the value of IC50 was more than 200 nM.).
`COc1cc(OC)cc(C(=O)NC[C@H]2CC[C@@H](Nc3nc4c(c(N(C)C)n3)CCCC4)CC2)c1` [compound 638]: the class is 3 (Class 3 The value of percent of control at 10^−7 M was more than 60% or the value of IC50 was more than 200 nM.).
Take `CN(C)c1nc(N[C@H]2CC[C@@H](NC(=O)Nc3c(F)cccc3F)CC2)nc2c1CCCC2` [compound 1820]: the class is listed as 3 (Class 3 The value of percent of control at 10^−7 M was more than 60% or the value of IC50 was more than 200 nM.).
Take `CN(C)c1ccnc(N[C@H]2CC[C@@H](NC(=O)c3c(F)c(F)c(F)c(F)c3F)CC2)n1` [compound 348]: the class is 3 (Class 3 The value of percent of control at 10^−7 M was more than 60% or the value of IC50 was more than 200 nM.).
With `CN(C)c1cc(N[C@H]2CC[C@@H](CNC(=O)c3c(Cl)cc(Cl)cc3Cl)CC2)nc2ccccc12` [compound 233], the class was 1 (Class 1: The value of percent of control at 10^−7 M was less than 40% or the value of IC50 was less than 50 nM.).
Consider `CN(C)c1nc(N[C@H]2CC[C@@H](NC(=O)Nc3cccc(Cl)c3)CC2)nc2c1CCCC2` [compound 1814], for which the class is reported as 3 (Class 3 The value of percent of control at 10^−7 M was more than 60% or the value of IC50 was more than 200 nM.).
Regarding `CN(C)c1ccnc(N[C@H]2CC[C@@H](NC(=O)/C=C/c3cccc([N+](=O)[O-])c3)CC2)n1` [compound 822], the class is reported as 3 (Class 3 The value of percent of control at 10^−7 M was more than 60% or the value of IC50 was more than 200 nM.).
In the case of `CN(C)c1ccnc(N[C@H]2CC[C@@H](NC(=O)c3ccc(C(F)(F)F)cc3)CC2)n1` [compound 335], the class is 3 (Class 3 The value of percent of control at 10^−7 M was more than 60% or the value of IC50 was more than 200 nM.).
Turning to `Cc1cc(C)c(C(=O)C(=O)N[C@H]2CC[C@@H](Nc3nccc(N(C)C)n3)CC2)c(C)c1` [compound 914, N-(cis-4-{[4-(dimethylamino)pyrimidin-2-yl]amino}cyclohexyl)-2-mesityl-2-oxoacetamide], the class was 2 (Class 2: The value of percent of control at 10^−7 M was from 40% to 60% or the value of IC′50 was from 50 nM to 200 nM.).
On to `C=CCSc1ncccc1C(=O)N[C@H]1CC[C@@H](Nc2cc(N(C)C)c3ccccc3n2)CC1` [compound 786], for which the class is reported as 3 (Class 3 The value of percent of control at 10^−7 M was more than 60% or the value of IC50 was more than 200 nM.).
The same measure, in the same setting: the same measure for `CN(C)c1nc(N[C@H]2CC[C@@H](CNCc3cccc(C#N)c3)CC2)nc2c1CCCC2` [compound 1405]: 3 (Class 3 The value of percent of control at 10^−7 M was more than 60% or the value of IC50 was more than 200 nM.); for `CN(C)c1cc(N[C@H]2CC[C@@H](CNC(=O)c3ccc([N+](=O)[O-])s3)CC2)nc2ccccc12` [compound 802, N-[(cis-4-{[4-(dimethylamino)quinolin-2-yl]amino}cyclohexyl)methyl]-5-nitrothiophene-2-carboxamide]: 3 (Class 3 The value of percent of control at 10^−7 M was more than 60% or the value of IC50 was more than 200 nM.).

Still in this assay, the particulars now being: class by percent of control at 10^−7 M or IC50.
`Cc1cnc(N[C@H]2CC[C@@H](NC(=O)C3(c4ccc(Cl)cc4)CC3)CC2)nc1N(C)C` [compound 2870]: the class is reported as 1 (Class 1: The value of percent of control at 10^−7 M was less than 40% or the value of IC50 was less than 50 nM.).
Regarding `Cc1cc(N(C)C)nc(N[C@H]2CC[C@@H](NC(=O)c3cc(F)cc(F)c3)CC2)n1` [compound 2968, N-(cis-4-{[4-(dimethylamino)-6-methylpyrimidin-2-yl]amino}cyclohexyl)-3,5-difluorobenzamide], the class is reported as 1 (Class 1: The value of percent of control at 10^−7 M was less than 40% or the value of IC50 was less than 50 nM.).
Regarding `Cc1cnc(N[C@H]2CC[C@@H](NC(=O)C[S+]([O-])c3ccc(F)c(F)c3)CC2)nc1N(C)C` (relative stereo) [compound 2883, 2-[(3,4-difluorophenyl)sulfinyl]-N-(cis-4-{[4-(dimethylamino)-5-methylpyrimidin-2-yl]amino}cyclohexyl)acetamide], the class was 2 (Class 2: The value of percent of control at 10^−7 M was from 40% to 60% or the value of IC′50 was from 50 nM to 200 nM.).
On the same count and under the same terms, the same measure for `Cc1cc(N(C)C)nc(N[C@H]2CC[C@@H](C(=O)NCc3cccc(F)c3F)CC2)n1` [compound 2820, cis-N-(2,3-difluorobenzyl)-4-{[4-(dimethylamino)-6-methylpyrimidin-2-yl]amino}cyclohexanecarboxamide]: 1 (Class 1: The value of percent of control at 10^−7 M was less than 40% or the value of IC50 was less than 50 nM.).
For the molecule `Cc1cc(N(C)C)nc(N[C@H]2CC[C@@H](CNC(=O)c3ccc(OC(F)(F)F)cc3)CC2)n1` [compound 2760], the class was 3 (Class 3 The value of percent of control at 10^−7 M was more than 60% or the value of IC50 was more than 200 nM.).
Still for that read-out and setting: the same measure for `Cc1cc(N(C)C)nc(N[C@H]2CC[C@@H](CNC(=O)c3ccc(C(F)(F)F)c(F)c3)CC2)n1` [compound 2765]: 2 (Class 2: The value of percent of control at 10^−7 M was from 40% to 60% or the value of IC′50 was from 50 nM to 200 nM.).
As to `COc1cc(OC)cc(C(=O)NC[C@H]2CC[C@@H](Nc3nc(C)cc(N(C)C)n3)CC2)c1` [compound 2711], the class was 2 (Class 2: The value of percent of control at 10^−7 M was from 40% to 60% or the value of IC′50 was from 50 nM to 200 nM.).
Turning to `Cc1cc(C(=O)N[C@H]2CC[C@@H](CNc3ncc(C)c(N(C)C)n3)CC2)ccc1F` [compound 2718], the class is 2 (Class 2: The value of percent of control at 10^−7 M was from 40% to 60% or the value of IC′50 was from 50 nM to 200 nM.).
For the molecule `Cc1cnc(N[C@H]2CC[C@@H](NCc3cccc(OC(F)(F)F)c3)CC2)nc1N(C)C` [compound 3004], the class was 3 (Class 3 The value of percent of control at 10^−7 M was more than 60% or the value of IC50 was more than 200 nM.).

Source of the values: US20050197350A1, “Novel quinoline, tetrahydroquinazoline, and pyrimidine derivatives and methods of treatment related to the use thereof” (TAISHO PHARMACEUTICAL CO., LTD., priority 2003, published 2005).
